From the CheMixHub viscosity set
“And” between values parts separate entries of the source, which are not always exact repeats. Equal entries are not always repeated.

C1CCCCC1
Settings | viscosity
293.15 K, 101 kPa | 0.972 mPa·s
293.15 K, 101.3 kPa | 0.986 mPa·s
298 K, 101 kPa | 0.99 mPa·s
298 K, 101.3 kPa | 0.883 mPa·s
298.15 K, 100 kPa | 0.8956 mPa·s and 0.8961 mPa·s
298.15 K, 101.3 kPa | 0.905 mPa·s and 0.8862 mPa·s
303 K, 101.33 kPa | 0.8141 mPa·s
303.15 K, 100 kPa | 0.82 mPa·s
303.15 K, 101.32 kPa | 0.826 mPa·s
303.75 K, 101.33 kPa | 0.8403 mPa·s
307.35 K, 101.33 kPa | 0.76 mPa·s
307.4 K, 101.33 kPa | 0.309 mPa·s
308 K, 101 kPa | 0.86 mPa·s
308.15 K, 100 kPa | 0.7316 mPa·s
308.15 K, 101.3 kPa | 0.7483 mPa·s and 0.7592 mPa·s
312.75 K, 101.33 kPa | 0.7277 mPa·s
313 K, 101.33 kPa | 0.7045 mPa·s
313.15 K, 100 kPa | 0.7 mPa·s
313.15 K, 101 kPa | 0.687 mPa·s and 0.6934 mPa·s
313.15 K, 101.3 kPa | 0.7003 mPa·s and 0.6886 mPa·s
313.15 K, 101.33 kPa | 0.682 mPa·s and 0.6995 mPa·s
318 K, 101.3 kPa | 0.6338 mPa·s and 0.6445 mPa·s
318 K, 101.33 kPa | 0.6338 mPa·s
318.15 K, 101 kPa | 0.649 mPa·s and 0.648 mPa·s and 0.655 mPa·s
321.15 K, 101.32 kPa | 0.5964 mPa·s
322.15 K, 101.32 kPa | 0.5901 mPa·s
323 K, 101 kPa | 0.6023 mPa·s and 0.6009 mPa·s
323 K, 101.33 kPa | 0.6126 mPa·s
323.15 K, 100 kPa | 0.6074 mPa·s and 0.6 mPa·s and 0.6077 mPa·s
323.15 K, 101 kPa | 0.607 mPa·s
323.15 K, 101.32 kPa | 0.5842 mPa·s

CC(=O)OC(C)C(C)C (configuration not stated)
101.33 kPa
Settings | viscosity [mPa·s]
298.15 K | 0.795
303.15 K | 0.74
308.15 K | 0.69

CC(CC(C)(C)C)CP(=O)([O-])CC(C)CC(C)(C)C.CCCC[P+](C)(CCCC)CCCC (configuration not stated)
Settings | viscosity [mPa·s]
323.15 K, 101 kPa | 283

CCC(C)=O
Settings | viscosity
293.15 K, 100 kPa | 0.4 mPa·s and 0.4152 mPa·s
298 K, 101.3 kPa | 0.475 mPa·s
298 K, 101.33 kPa | 0.3774 mPa·s
298.15 K, 100 kPa | 0.3992 mPa·s
298.15 K, 101.3 kPa | 0.407 mPa·s
298.15 K, 101.33 kPa | 0.384 mPa·s and 0.46 mPa·s and 0.39 mPa·s
299.15 K, 101.3 kPa | 0.401 mPa·s
303.15 K, 101.3 kPa | 0.364 mPa·s
303.15 K, 101.33 kPa | 0.366 mPa·s
307.35 K, 101.33 kPa | 0.35 mPa·s
308.15 K, 100 kPa | 0.344 mPa·s and 0.3666 mPa·s
308.15 K, 101.33 kPa | 0.342 mPa·s and 0.422 mPa·s
313.15 K, 101.3 kPa | 0.356 mPa·s
318 K, 101.3 kPa | 0.3429 mPa·s
318 K, 101.33 kPa | 0.3417 mPa·s
318.15 K, 101 kPa | 0.3194 mPa·s and 0.3213 mPa·s and 0.322 mPa·s
318.15 K, 101.3 kPa | 0.343 mPa·s
318.15 K, 101.33 kPa | 0.311 mPa·s and 0.397 mPa·s
323.15 K, 100 kPa | 0.31 mPa·s and 0.304 mPa·s
323.15 K, 101.3 kPa | 0.3327 mPa·s

CCCCCCCC(=O)OCC
100 kPa
Settings | viscosity [mPa·s]
293.15 K | 1.549
303.15 K | 1.295
313.15 K | 1.095
323.15 K | 0.949

CCCCCCOC(C)=O
101.33 kPa
Settings | viscosity [mPa·s]
293.15 K | 1.078
303.15 K | 0.782
313.15 K | 0.672

CCCCOCC(C)O (configuration not stated)
101.33 kPa
Settings | viscosity [mPa·s]
298.15 K | 2.855
308.15 K | 2.142
318.15 K | 1.655

CCCC[N+]1(C)CCCC1.FC(F)(F)C(F)(F)[P-](F)(F)(F)(C(F)(F)C(F)(F)F)C(F)(F)C(F)(F)F
101 kPa
Settings | viscosity [mPa·s]
298.15 K | 283.4
303.15 K | 214
308.15 K | 166.2
313.15 K | 122.1
318.15 K | 100.3
323.15 K | 80.1

CCOC(=O)C(C)Br (configuration not stated)
Settings | viscosity [mPa·s]
303.15 K, 101 kPa | 1.493

CC[n+]1ccn(C)c1.O=C([O-])C(F)(F)F
101 kPa
Settings | viscosity [mPa·s]
293.15 K | 39.5
298.15 K | 32.9
303.15 K | 27.5
313.15 K | 19.9

CN(C)N
Settings | viscosity [mPa·s]
293.15 K, 101.3 kPa | 0.55

COC(C)=O
Settings | viscosity
293.15 K, 101 kPa | 0.411 mPa·s
303.15 K, 101.3 kPa | 0.3448 mPa·s and 0.3442 mPa·s and 0.3448 mPa·s
313.15 K, 101 kPa | 0.321 mPa·s and 0.3524 mPa·s and 0.331 mPa·s
313.15 K, 101.33 kPa | 0.331 mPa·s
318.15 K, 101 kPa | 0.299 mPa·s and 0.313 mPa·s

COCCOC
Settings | viscosity
298 K, 101.3 kPa | 0.432 mPa·s
298.15 K, 101 kPa | 0.45 mPa·s
298.15 K, 101.33 kPa | 0.4236 mPa·s
301.15 K, 100 kPa | 0.6 mPa·s and 0.7 mPa·s
308.15 K, 101 kPa | 0.445 mPa·s and 0.3812 mPa·s
308.15 K, 101.33 kPa | 0.3847 mPa·s
313.15 K, 101 kPa | 0.3628 mPa·s
318.15 K, 101 kPa | 0.3444 mPa·s
318.15 K, 101.33 kPa | 0.3496 mPa·s
323.15 K, 101 kPa | 0.3284 mPa·s

COc1ccccc1N
viscosity
Settings | 298.15 K | 303.15 K | 308.15 K | 313.15 K | 318.15 K
100 kPa | 5.374 mPa·s | – | – | – | –
101 kPa | – | 4.924 mPa·s and 4.922 mPa·s and 4.922 mPa·s | 4.512 mPa·s and 4.512 mPa·s | 4.185 mPa·s and 4.185 mPa·s | 3.883 mPa·s and 3.883 mPa·s

C[N+](C)(CCCS(=O)(=O)O)C1CCCCC1.Cc1ccc(S(=O)(=O)[O-])cc1
101 kPa
Settings | viscosity [mPa·s]
303.15 K | 113700
308.15 K | 56930
313.15 K | 32650
318.15 K | 17830
323.15 K | 10190

Cc1ccc(C)c(C)c1
102 kPa
Settings | viscosity [mPa·s]
293.15 K | 0.84
303.15 K | 0.731
313.15 K | 0.64
323.15 K | 0.567

OCC1CCCCC1
Settings | viscosity [mPa·s]
293.15 K, 100 kPa | 37.75
